DC50 data for 13 molecules are collected here from patent US20240190880A1 (THE REGENTS OF THE UNIVERSITY OF MICHIGAN, priority 2021, published 2024).

A value given as a limit tells only on which side of the number the result lay.

This test addresses T1, ER (Homo sapiens, UniProt P03372).
T1 construct: host or cells: T47D and MCF7 human breast cancer cells
T1 sequence (P03372 1-595): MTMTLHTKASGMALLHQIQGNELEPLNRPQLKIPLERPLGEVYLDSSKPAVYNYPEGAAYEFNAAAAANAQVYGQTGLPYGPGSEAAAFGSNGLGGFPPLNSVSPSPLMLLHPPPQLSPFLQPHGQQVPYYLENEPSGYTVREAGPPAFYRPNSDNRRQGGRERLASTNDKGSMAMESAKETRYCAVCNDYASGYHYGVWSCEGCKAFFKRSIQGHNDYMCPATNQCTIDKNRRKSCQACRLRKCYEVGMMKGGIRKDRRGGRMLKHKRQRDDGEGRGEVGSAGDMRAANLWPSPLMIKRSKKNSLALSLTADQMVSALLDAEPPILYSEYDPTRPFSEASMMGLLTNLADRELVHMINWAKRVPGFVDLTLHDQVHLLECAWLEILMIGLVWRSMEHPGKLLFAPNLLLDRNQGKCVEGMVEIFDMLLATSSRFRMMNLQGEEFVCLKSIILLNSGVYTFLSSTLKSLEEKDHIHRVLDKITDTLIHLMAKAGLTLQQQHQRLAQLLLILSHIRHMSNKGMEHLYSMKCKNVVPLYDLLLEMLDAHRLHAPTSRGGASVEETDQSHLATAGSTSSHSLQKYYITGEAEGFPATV
Nature of the test: ER degradation activity, in-cell western blot analysis in T47D cells. The test is classed as cell-based. The settings on record: 16 hours, Table A does not say which cell line (T47D or MCF7), read-out: Potency (DC50). The method in brief: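 T47D cells grown in DMEM with 10% FBS were treated with compounds for 16 hours at 0.5% DMSO final. ER was detected by in-cell western using 680/800 near-infrared secondary antibodies. Residual ER is given as percent of untreated and DMSO-treated wells set to 100%.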
On to `C[C@@H]1Cc2c([nH]c3ccccc23)[C@@H](c2c(F)cc(N3CCC(N4CCC(N5Cc6cc7c(cc6C5)C(=O)N(C5CCC(=O)NC5=O)C7=O)CC4)CC3)cc2F)N1CC(F)F` (stereo partly drawn) [E 87, 6-(1′-(4-((1R,3R)-2-(2,2-difluoroethyl)-3-methyl-2,3,4,9-tetrahydro-1H-pyrido[3-4-b]indol-1-yl)-3,5-difluorophenyl)-[1,4′-bipiperidin]-4-yl)-2-(2,6-dioxopiperidin-3-yl)-6,7-dihydropyrrolo[3,4-f]isoindole-1,3(2H,5H)-dione], for which the half-maximal degradation concentration (DC50) is more than 100 nM. For the molecule `C[C@@H]1Cc2c([nH]c3ccccc23)[C@@H](c2c(F)cc(N3CCN(CCN4Cc5cc6c(cc5C4)C(=O)N(C4CCC(=O)NC4=O)C6)CC3)cc2F)N1CC(F)F` (stereo partly drawn) [E 54, 3-(6-(2-(4-(4-((1R,3R)-2-(2,2-difluoroethyl)-3-methyl-2,3,4,9-tetrahydro-1H-pyrido[3,4-b]indol-1-yl)-3,5-difluorophenyl)piperazin-1-yl)ethyl)-1-oxo-3,5,6,7-tetrahydropyrrolo[3,4-f]isoindol-2(1H)-yl)piperidine-2,6-dione], the DC50 fell in the range of 10 to 100 nM.

On to `O=C1CCC(N2C(=O)c3cc4c(cc3C2=O)CN(CCC(=O)NC2CCN(c3ccc([C@@H]5c6ccc(O)cc6CC[C@@H]5c5ccccc5)cc3)CC2)C4)C(=O)N1` (stereo partly drawn) [E332, 3-(6-(2,6-dioxopiperidin-3-yl)-5,7-dioxo-3,5,6,7-tetrahydropyrrolo[3,4-f]isoindol-2(1H)-yl)-N-(1-(4-((1R,2S)-6-hydroxy-2-phenyl-1,2,3,4-tetrahydronaphthalen-1-yl)phenyl)piperidin-4-yl)propanamide], for which the DC50 was more than 100 nM. With `O=C1CCC(N2C(=O)c3cc4c(cc3C2=O)CN(CC(=O)N2CCC3(CCN(c5ccc([C@@H]6c7ccc(O)cc7CC[C@@H]6c6ccccc6)cc5)CC3)C2)C4)C(=O)N1` (mixture of isomers) [E 7, rac-2-(2,6-dioxopiperidin-3-yl)-6-(2-(8-(4-((1R,2S)-6-hydroxy-2-phenyl-1,2,3,4-tetrahydronaphthalen-1-yl)phenyl)-2,8-diazaspiro[4.5]decan-2-yl)-2-oxoethyl)-6,7-dihydropyrrolo[3,4-f]isoindole-1,3(2H,5H)-dione] the figure was 10 to 100 nM; with `C[C@@H]1Cc2cc(O)ccc2[C@@H](c2c(F)cc(N3CCC4(CN(C(=O)CN5Cc6cc7c(cc6C5)C(=O)N(C5CCC(=O)NC5=O)C7)C4)C3)cc2F)N1CC(F)F` (stereo partly drawn) [E 37, 3-(6-(2-(6-(4-((1S,3R)-2-(2,2-difluoroethyl)-6-hydroxy-3-methyl-1,2,3,4-tetrahydroisoquinolin-1-yl)-3,5-difluorophenyl)-2,6-diazaspiro[3.4]octan-2-yl)-2-oxoethyl)-1-oxo-3,5,6,7-tetrahydropyrrolo[3,4-f]isoindol-2(1H)-yl)piperidine-2,6-dione], less than 10 nM; with `C[C@@H]1Cc2c([nH]c3ccccc23)[C@@H](c2c(F)cc(N3CC(CC(=O)N4CC(N5Cc6cc7c(cc6C5)C(=O)N(C5CCC(=O)NC5=O)C7)C4)C3)cc2F)N1CC(F)F` (stereo partly drawn) [E 134, 3-(6-(1-(2-(1-(4-((1R,3R)-2-(2,2-difluoroethyl)-3-methyl-2,3,4,9-tetrahydro-1H-pyrido[3,4-b]indol-1-yl)-3,5-difluorophenyl)azetidin-3-yl)acetyl)azetidin-3-yl)-1-oxo-3,5,6,7-tetrahydropyrrolo[3,4-f]isoindol-2(1H)-yl)piperidine-2,6-dione], 10 to 100 nM. With `O=C1CCC(N2C(=O)c3cc4c(cc3C2=O)CN(CC2CCN(CC3CCN(c5ccc([C@@H]6c7ccc(O)cc7CC[C@@H]6c6ccccc6)cc5)CC3)CC2)C4)C(=O)N1` (stereo partly drawn) [E 217, 2-(2,6-dioxopiperidin-3-yl)-6-((1-((1-(4-((1R,2S)-6-hydroxy-2-phenyl-1,2,3,4-tetrahydronaphthalen-1-yl)phenyl)piperidin-4-yl)methyl)piperidin-4-yl)methyl)-6,7-dihydropyrrolo[3,4-f]isoindole-1,3(2H,5H)-dione] the figure was more than 100 nM; with `C[C@@H]1Cc2c([nH]c3ccccc23)[C@@H](c2c(F)cc(C(=O)N3CCC4(CC3)CC(CN3Cc5cc6c(cc5C3)C(=O)N(C3CCC(=O)NC3=O)C6=O)C4)cc2F)N1CC(F)F` (stereo partly drawn) [E 369, 6-((7-(4-((1R,3R)-2-(2,2-difluoroethyl)-3-methyl-2,3,4,9-tetrahydro-1H-pyrido[3,4-b]indol-1-yl)-3,5-difluorobenzoyl)-7-azaspiro[3.5]nonan-2-yl)methyl)-2-(2,6-dioxopiperidin-3-yl)-6,7-dihydropyrrolo[3,4-f]isoindole-1,3(2H,5H)-dione], more than 100 nM; with `C[C@@H]1Cc2c([nH]c3ccccc23)[C@@H](c2c(F)cc(C3CCN(C[C@H]4CC[C@H](N5Cc6cc7c(cc6C5)C(=O)N(C5CCC(=O)NC5=O)C7=O)CC4)CC3)cc2F)N1CC(F)F` (stereo partly drawn) [E 366, 6-((1R,4r)-4-((4-(4-((1R,3R)-2-(2,2-difluoroethyl)-3-methyl-2,3,4,9-tetrahydro-1H-pyrido[3,4-b]indol-1-yl)-3,5-difluorophenyl)piperidin-1-yl)methyl)cyclohexyl)-2-(2,6-dioxopiperidin-3-yl)-6,7-dihydropyrrolo[3,4-f]isoindole-1,3(2H,5H)-dione], more than 100 nM. With `C[C@@H]1Cc2c([nH]c3ccccc23)[C@@H](c2c(F)cc(N3CCC(CN4CC(C(=O)N5Cc6cc7c(cc6C5)C(=O)N(C5CCC(=O)NC5=O)C7=O)C4)CC3)cc2F)N1CC(F)F` (stereo partly drawn) [E 239, 6-(1-((1-(4-((1R,3R)-2-(2,2-difluoroethyl)-3-methyl-2,3,4,9-tetrahydro-1H-pyrido[3,4-b]indol-1-yl)-3,5-difluorophenyl)piperidin-4-yl)methyl)azetidine-3-carbonyl)-2-(2,6-dioxopiperidin-3-yl)-6,7-dihydropyrrolo[3,4-f]isoindole-1,3(2H,5H)-dione] the figure was more than 100 nM; with `O=C1CCC(N2C(=O)c3cc4c(cc3C2=O)CN(CC(=O)N2CCC(n3cc(-c5ccc([C@@H]6c7ccc(O)cc7CC[C@@H]6c6ccccc6)cc5)cn3)CC2)C4)C(=O)N1` (stereo partly drawn) [E 214, 2-(2,6-dioxopiperidin-3-yl)-6-(2-(4-(4-(4-((1R,2S)-6-hydroxy-2-phenyl-1,2,3,4-tetrahydronaphthalen-1-yl)phenyl)-1H-pyrazol-1-yl)piperidin-1-yl)-2-oxoethyl)-6,7-dihydropyrrolo[3,4-f]isoindole-1,3(2H,5H)-dione], more than 100 nM; with `O=C1CCC(N2C(=O)c3cc4c(cc3C2=O)CN(CC(=O)N2CC3(CCN(c5ccc([C@@H]6c7ccc(O)cc7CC[C@@H]6c6ccc(F)cc6)cc5)CC3)C2)C4)C(=O)N1` (mixture of isomers) [E 19, Rac-2-(2,6-dioxopiperidin-3-yl)-6-(2-(7-(4-((1R,2S)-2-(4-fluorophenyl)-6-hydroxy-1,2,3,4-tetrahydronaphthalen-1-yl)phenyl)-2,7-diazaspiro[3.5]nonan-2-yl)-2-oxoethyl)-6,7-dihydropyrrolo[3,4-f]isoindole-1,3(2H,5H)-dione], less than 10 nM. With `O=C1CCC(N2C(=O)c3cc4c(cc3C2=O)CN(CC2(F)CCN(CC3CCN(c5ccc([C@@H]6c7ccc(O)cc7CC[C@@H]6c6ccccc6)cc5)CC3)CC2)C4)C(=O)N1` (stereo partly drawn) [E 211, 2-(2,6-dioxopiperidin-3-yl)-6-((4-fluoro-1-((1-(4-((1R,2S)-6-hydroxy-2-phenyl-1,2,3,4-tetrahydronaphthalen-1-yl)phenyl)piperidin-4-yl)methyl)piperidin-4-yl)methyl)-6,7-dihydropyrrolo[3,4-f]isoindole-1,3(2H,5H)-dione], the DC50 was more than 100 nM.
